Here are results for two molecules from US10085449B2, “N-[1-((6-chloropyridin-3-yl)methyl)pyridin-2(1H)-ylidene]-2,2,2- trifluoroacetamide for control of agricultural/horticultural pests” (priority 2010, dated 2018).

A word on the mortality: it is the percentage killed.

Where two headings read alike, the source gives them in different places.

The subject of data set [1] is white-backed rice planthopper. Briefly: White-backed rice planthopper control test (foliar application). It counts as in vivo. The following applies: 100 ppm foliar application, second-instar larvae on rice seedlings, 4 days after release. The method, then:
(§1) Rice seedlings grown in pots were subjected to the foliar application of solutions of the inventive compounds at a predetermined concentration prepared to 50% acetone/water (containing 0.05% Tween 20). The treated seedlings were air dried, following which second-instar larvae were released onto the seedlings. The seedlings and larvae were then held in an incubation chamber at 25° C. (16-hour period of light, 8-hour dark period). Four days after released, the numbers of live and dead insects were counted, and the mortality was calculated from the following formula. This was a two-replication test. Mortality (%)=[number of dead insects/(number of live insects+number of dead insects)]×100

For data set [2], the system named is canine heartworm microfilariae. Briefly: Effects on canine heartworm (motility of microfilariae). On the set-up: key: At least two-thirds of the heartworms died; B: Substantially all the heartworms were affected in some way, or at least one-third died; C: No influence, or less than one-third of the heartworms died. The following applies: 3.13 ppm in RPMI1640 liquid culture medium, 37° C., observed for 48 hours. The method, then: The activities of the compounds were evaluated based on changes in the motility of microfilariae in canine heartworm. The respective compounds were dissolved in a RPMI1640 liquid culture medium to a concentration of 3.13 ppm, following which about 20 canine heartworm microfilariae were placed in each culture fluid and cultured at 37° C.
Criteria A: At least two-thirds of the heartworms died • B: Substantially all the heartworms were affected in some way, or at least one-third died • C: No influence, or less than one-third of the heartworms died

For data set [3], the system named is small brown planthopper. Description: whole plant or invertebrate. Format: in vivo. Conditions: Laodelphax striatellus, in Triticum aestivum, 96 h. An outline of the steps:
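Roots of 48-h wheat seedlings took up compound in 10% acetone/water for 72 h, then ten second-instar larvae were released per seedling and held at 25 °C (16 h light/8 h dark). Mortality counted four days after release; two replications.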

Another data set concerns diamondback moth. Briefly: whole plant or invertebrate. It counts as in vivo. Conditions: Plutella xylostella, foliar. The procedure, abridged:
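Cabbage leaf discs sprayed with compound in 50% acetone/water with 0.05% Tween 20, air-dried, then infested with second-instar larvae. Held at 25 °C under 16 h light/8 h dark; mortality from dead/(live+dead) counts after 3 days, two replicates.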

For the next data set, the system named is greenhouse whitefly. Description: whole plant or invertebrate. It counts as in vivo. Conditions: Cucumis sativus, foliar, 336 h. The method, then:
Adult greenhouse whiteflies were released onto cucumber plants grown in pots, and allowed to laid eggs overnight. One day after the start of oviposition, the adults were removed, and the plants and eggs were held in an incubation chamber at 25° C. (16-hour period of light, 8-hour dark period). Three days after the end of oviposition, leaf discs 2.0 cm in diameter were cut from the cucumber plants and, after confirming oviposition thereon, the leaf discs were sprayed with solutions of the inventive compounds at a predetermined concentration prepared to 50% acetone/water (containing 0.05% Tween 20). After spraying, the treated leaf discs were held in an incubation chamber at 25° C. (16-hour period of light, 8-hour dark period). Fourteen days after spraying, the numbers of live and dead insects were counted, and the mortality was calculated from the following formula. This was a two-replication test. Mortality (%)=[(number of oviposited eggs−number of live insects)/number of oviposited eggs]×100

The test system of data set [4] is small brown planthopper. Description: whole plant or invertebrate. It counts as in vivo. The following applies: Laodelphax striatellus, 72 h. An outline of the steps:
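Rice seedlings in pots soil-drenched with compound at a set concentration in 10% acetone/water; ten second-instar larvae released per seedling 3 days later. Held at 25° C. (16 h light/8 h dark) and scored live/dead 3 days after release. Mortality (%) = dead/(live+dead)×100; two replications.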

The test system of the next data set is common cutworm. Briefly: whole plant or invertebrate. It counts as in vivo. Conditions: for Insecticidal effects (mortality), common cutworm third-instar larvae: foliar application. An outline of the steps: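 Cabbage leaf discs (5.0 cm) sprayed with compound at a set concentration in 50% acetone/water with 0.05% Tween 20, air dried, then infested with third-instar larvae. Held at 25° C., 16 h light/8 h dark; dead and live larvae counted after 3 days, two replicates, mortality (%) = dead/(live+dead)×100.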

The next data set concerns rice leaf bug. Description: whole plant or invertebrate. It counts as in vivo. The following applies: foliar, 72 h. The method, then:
The treated seedlings were air-dried, then each was placed in a glass cylinder and two second-instar rice leaf bug larvae were released within the same glass cylinder. Following release of the insects, the tube was capped and held in an incubation chamber at 25° C. (16-hour period of light, 8-hour dark period). […] Three days after released, the numbers of live and dead insects were counted, and the mortality was calculated from the following formula. Mortality (%)=[number of dead insects/(number of live insects+number of dead insects)]×100

Data set [5] relates to small brown planthopper. Description: whole plant or invertebrate. It counts as in vivo. Conditions: Laodelphax striatellus, foliar. The method, then: as §1, with “Three” for “Four”
For the next data set, the system named is cotton aphid. Description: whole plant or invertebrate. Conditions: Aphis gossypii, foliar. Format: in vivo. The procedure, abridged:
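Cucumber leaf discs (2.0 cm) sprayed with compound in 50% acetone/water with 0.05% Tween 20, air-dried, then infested with first-instar cotton aphids. Held at 25 °C under 16 h light/8 h dark; mortality counted after 3 days, two replicates.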

Another data set has as its system western flower thrips. Description: whole plant or invertebrate. Format: in vivo. Conditions: Frankliniella occidentalis, foliar. An outline of the steps:
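Bean leaf discs sprayed with compound in 50% acetone/water with 0.05% Tween 20, air dried, then infested with first-instar larvae. Held at 25° C under 16 h light/8 h dark; live and dead counted after 3 days to give % mortality, two replicates.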

Setting [6] is: read-out: Insecticidal effects (mortality), small brown planthopper second-instar larvae.
Setting [7] is: read-out: Insecticidal effects (mortality), diamondback moth second-instar larvae.
Where [8] appears, read: soil, read-out: Insecticidal effects (mortality), small brown planthopper second-instar larvae.
The mark [9] stands for this setting: read-out: Insecticidal effects (mortality), cotton aphid first-instar larvae.
The mark [10] stands for this setting: read-out: Insecticidal effects (mortality), western flower thrips first-instar larvae.

With `CSCCN(C#N)Cc1ccc(Cl)nc1` [Compound 1, 2-chloro-5-[N-cyano-N-(2-methylthioethyl)]aminomethylpyridine], the Mortality result in [1] is on record as “at least 80%”. In addition, the “Microfilaricidal effect (motility rating)” value in data set [2] is “B”.
Turning to `O=C(N=c1ccccn1Cc1ccc(F)nc1)C(F)(F)F` [Compound 229, N-[1-((6-fluoropyridin-3-yl)methyl)pyridin-2(1H)-ylidene]-2,2,2-trifluoroacetamide], the mortality at 20 µg/seedling in the data set with small brown planthopper [3] is at least 80%. In addition, the mortality at 0.063 mg/seedling in the data set on small brown planthopper [3] (setting [6]) was 25%. In the data set with small brown planthopper [3] (setting [6]), the mortality at 0.25 mg/seedling is 75%. For the same molecule, the mortality at 0.5 mg/seedling in the data set with small brown planthopper [3] (setting [6]) was 100%. Also, the mortality at 2 mg/seedling in the data set with small brown planthopper [3] (setting [6]) is 100%. Moreover, the mortality at 20 ppm in the data set on diamondback moth (setting [7]) is 40%; in the data set on cotton aphid (setting [9]), 100%; in the data set with cotton aphid (in Cucumis sativus, 72 h), at least 80%. Also, the mortality at 100 ppm in the data set with diamondback moth (setting [7]) is 100%; in the data set on diamondback moth (in Brassica oleracea, 72 h), at least 80%; with greenhouse whitefly, at least 80%; in the data set with small brown planthopper [5] (in Oryza sativa, 72 h), at least 80%; with cotton aphid (setting [9]), 100%; in the data set with cotton aphid (in Cucumis sativus, 72 h) it was at least 80%. Also, the mortality at 100 ppm with western flower thrips (setting [10]) worked out at 60%. In addition, the mortality at 500 ppm is 100% in the data set with diamondback moth (setting [7]); at least 80% with diamondback moth (in Brassica oleracea, 72 h); at least 80% with common cutworm (foliar, 72 h); 100% in the data set on cotton aphid (setting [9]); at least 80% in the data set with cotton aphid (in Cucumis sativus, 72 h); at least 80% in the data set on western flower thrips (72 h). Also, in the data set with western flower thrips (setting [10]), the mortality at 500 ppm came out at 100%. In addition, the pest or weed control at 0.005 mg/pot with small brown planthopper [4] (rice soil drenching, 0.005 mg/pot (Table 13), read-out: Small brown planthopper (rice soil drenching), effect) stood at 30%. In the data set on small brown planthopper [4] (rice soil drenching, 0.01 mg/pot (Table 13), read-out: Small brown planthopper (rice soil drenching), effect), the pest or weed control at 0.01 mg/pot came out at 100%. Further, in the data set on small brown planthopper [4] (rice soil drenching, 0.05 mg/pot (Table 13), read-out: Small brown planthopper (rice soil drenching), effect), the pest or weed control at 0.05 mg/pot is 100%. Moreover, the mortality at 0.05 mg/seedling in the data set on small brown planthopper [4] (soil) is at least 80%. Besides, in the data set with small brown planthopper [4] (setting [8]), the mortality at 0.005 mg/pot turned out to be 30%. Moreover, the mortality at 0.01 mg/pot with small brown planthopper [4] (setting [8]) stood at 100%. Moreover, the mortality at 0.05 mg/pot in the data set with small brown planthopper [4] (setting [8]) was found to be 100%. Moreover, the “Insecticidal effects (mortality), common cutworm third-instar larvae” value worked out at 30 in the data set on common cutworm (100 ppm) and 100 with common cutworm (500 ppm). Moreover, the mortality at 50 ppm in the data set on rice leaf bug was at least 80%. Also, the mortality at 5 ppm in the data set on small brown planthopper [5] (setting [6]) and with cotton aphid (setting [9]) was 95% throughout. Further, in the data set on cotton aphid (setting [9]), the mortality at 1.25 ppm turned out to be 80%.
